Data on 49 molecules can be found in patent US12612412B2, “Antiviral heterocyclic compounds” (Enanta Pharmaceuticals, Inc., priority 2021, dated 2026).

The subject of this experiment is genotype A, "Long" strain RSV. The experiment is described as follows: RSV-A assay (CPE protection in Hep-2 cells, ATPlite readout). Format: cell-based, Human respiratory syncytial virus (HRSV). The following applies: RSV-A Long strain, MOI 0.1, CPE protection, read-out: Human RSV-A (“Long”) EC50. The essentials:
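Hep-2, 8,000 cells/well, MOI 0.1 (PFU- or TCID50-based); 2-fold compound series, duplicates; 5 d incubation; ATPlite luminescence readout; EC50.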

The mark [1] stands for this setting: human respiratory syncytial virus.

Molecules are shown by their SMILES. Where two headings read alike, the source gives them in different places. Some results are limits rather than exact numbers.

As for `COc1cc(C(=O)NC[C@@](O)(c2cc3c(c(-c4ccc(F)c(Br)c4F)n2)OC[C@]3(C)C(N)=O)C(F)(F)F)cc2cn(C3CC3)nc12` [Example 1220], the concentration giving a half-maximal response (EC50) is below 200 nM.

Take `COc1cc(C(=O)NC[C@@](O)(c2cc3c(c(-c4cc(Br)c(F)cc4F)n2)OC[C@]3(C)C(N)=O)C(F)(F)F)cc2cn(C3CC3)nc12` [Example 1222]: the EC50 under setting [1] is below 200 nM.

In the case of `COc1cc(C(=O)NC[C@@](O)(c2cc3c(c(-c4cccc(Br)c4F)n2)OC[C@]3(C)C(N)=O)C(F)(F)F)cc2cn(C3CC3)nc12` [Example 1224], under setting [1], the EC50 is below 200 nM.

Regarding `COc1cc(C(=O)NC[C@](O)(c2cc3c(c(-c4cccc(Br)c4F)n2)OC[C@]3(C)C(N)=O)C(F)(F)F)cc2cn(C3CC3)nc12` [Example 1225], the concentration for a half-maximal effect (EC50) under setting [1] was below 200 nM.

For the molecule `COc1cc(C(=O)NCC(O)(c2cc3c(c(-c4ccc5c(c4)OC(F)(F)C5(F)F)n2)OC[C@]3(C)C(N)=O)C(F)(F)F)cc2cn(C3CC3)nc12` (stereo partly shown) [Example 1236], under setting [1], the EC50 was above 200 nM.

`COc1cc(C(=O)NC[C@@](O)(c2cc3c(c(-c4ccc5c(c4)OC(F)(F)C5(F)F)n2)OC[C@]3(C)C(N)=O)C2CC2)cc2cn(C3CC3)nc12` [Example 1237]: the EC50 under setting [1] was above 200 nM.

For the molecule `COc1cc(C(=O)NC[C@](O)(c2cc3c(c(-c4ccc5c(c4)OC(F)(F)C5(F)F)n2)OC[C@]3(C)C(N)=O)C2CC2)cc2cn(C3CC3)nc12` [Example 1238], under setting [1], the concentration giving a half-maximal response (EC50) was below 200 nM.

`COc1cc(C(=O)NC[C@@](O)(c2cc3c(c(C4=CCN(C(=O)OC(C)(C)C)CC4)n2)OC[C@]3(C)C(N)=O)C(F)(F)F)cc2cn(C3CC3)nc12` [Example 1239]: under setting [1], the EC50 was above 200 nM.

As for `COc1cc(C(=O)NCC(O)(c2cc3c(c(C4=CCOCC4)n2)OC[C@]3(C)C(N)=O)C(F)(F)F)cc2cn(C3CC3)nc12` (stereo partly shown) [Example 1240], the 50% effective concentration (EC50) under setting [1] is above 200 nM.

On to `COc1cc(C(=O)NC[C@](O)(c2cc3c(c(C4=CCN(C(=O)OC(C)(C)C)CC4)n2)OC[C@]3(C)C(N)=O)C(F)(F)F)cc2cn(C3CC3)nc12` [Example 1241], for which, under setting [1], the EC50 was above 200 nM.

Consider `COc1cc(C(=O)NC[C@](O)(c2cc3c(c(-c4cc(F)cc(Cl)c4F)n2)OC[C@]3(C)C(N)=O)C(F)(F)F)cc2cn(C3CC3)nc12` [Example 1242], for which the concentration for a half-maximal effect (EC50) under setting [1] is below 200 nM.

Turning to `COc1cc(C(=O)NC[C@](O)(c2cc3c(c(-c4cc(Cl)cc(F)c4F)n2)OC[C@]3(C)C(N)=O)C(F)(F)F)cc2cn(C3CC3)nc12` [Example 1243], the EC50 under setting [1] was below 200 nM.

As to `COc1cc(C(=O)NC[C@](O)(c2cc3c(c(-c4c(F)ccc(F)c4Cl)n2)OC[C@]3(C)C(N)=O)C(F)(F)F)cc2cn(C3CC3)nc12` [Example 1244], the EC50 under setting [1] was below 200 nM.

With `COc1cc(C(=O)NCC(O)(c2cc3c(c(-c4cc(F)c(Cl)c(F)c4)n2)OC[C@]3(C)C(N)=O)C(F)(F)F)cc2cn(C3CC3)nc12` (stereo partly shown) [Example 1245], the EC50 under setting [1] was below 200 nM.

Regarding `COc1cc(C(=O)NC[C@@](O)(c2cc3c(c(-c4cc(F)cc(F)c4F)n2)OC[C@]3(C)C(N)=O)C(F)(F)F)cc2cn(C3CC3)nc12` [Example 1246], under setting [1], the EC50 was below 200 nM.

As for `COc1cc(C(=O)NC[C@](O)(c2cc3c(c(-c4cc(F)cc(F)c4F)n2)OC[C@]3(C)C(N)=O)C(F)(F)F)cc2cn(C3CC3)nc12` [Example 1247], the EC50 under setting [1] was below 200 nM.

In the case of `COc1cc(C(=O)NCC(O)(c2cc3c(c(-c4cc(F)cc(Cl)c4)n2)OC[C@]3(C)C(N)=O)C(F)(F)F)cc2cn(C3CC3)nc12` (stereo partly shown) [Example 1252], under setting [1], the EC50 is below 200 nM.

On to `COc1cc(C(=O)NC[C@](O)(c2cc3c(c(-c4cccc(Cl)c4Cl)n2)OC[C@]3(C)C(N)=O)C(F)(F)F)cc2cn(C3CC3)nc12` [Example 1253], for which the EC50 under setting [1] was below 200 nM.

For `COc1cc(C(=O)NC[C@](O)(c2cc3c(c(-c4ccc(Cl)cc4Cl)n2)OC[C@]3(C)C(N)=O)C(F)(F)F)cc2cn(C3CC3)nc12` [Example 1254], under setting [1], the EC50 is below 200 nM.

As to `COc1cc(C(=O)NC[C@](O)(c2cc3c(c(-c4cc(Cl)ccc4Cl)n2)OC[C@]3(C)C(N)=O)C(F)(F)F)cc2cn(C3CC3)nc12` [Example 1255], under setting [1], the EC50 is below 200 nM.

On to `COc1cc(C(=O)NCC(O)(c2cc3c(c(-c4cc(Cl)cc(Cl)c4)n2)OC[C@]3(C)C(N)=O)C(F)(F)F)cc2cn(C3CC3)nc12` (stereo partly shown) [Example 1256], for which the half-maximal effective concentration (EC50) under setting [1] was below 200 nM.

As to `COc1cc(C(=O)NC[C@](O)(c2cc3c(c(-c4ccc(Cl)c(Cl)c4F)n2)OC[C@]3(C)C(N)=O)C(F)(F)F)cc2cn(C3CC3)nc12` [Example 1257], the EC50 under setting [1] was below 200 nM.

`COc1cc(C(=O)NC[C@](O)(c2cc3c(c(-c4cc(Cl)cc(Cl)c4F)n2)OC[C@]3(C)C(N)=O)C(F)(F)F)cc2cn(C3CC3)nc12` [Example 1258]: the concentration giving a half-maximal response (EC50) under setting [1] was below 200 nM.

`COc1cc(C(=O)NC[C@](O)(c2cc3c(c(-c4cc(Cl)cc(F)c4Cl)n2)OC[C@]3(C)C(N)=O)C(F)(F)F)cc2cn(C3CC3)nc12` [Example 1259]: the EC50 under setting [1] was below 200 nM.

For `COc1cc(C(=O)NC[C@](O)(c2cc3c(c(-c4ccc(Cl)c(F)c4Cl)n2)OC[C@]3(C)C(N)=O)C(F)(F)F)cc2cn(C3CC3)nc12` [Example 1260], under setting [1], the EC50 is below 200 nM.

Take `COc1cc(C(=O)NC[C@](O)(c2cc3c(c(-c4cc(F)cc(F)c4Cl)n2)OC[C@]3(C)C(N)=O)C(F)(F)F)cc2cn(C3CC3)nc12` [Example 1261]: the concentration giving a half-maximal response (EC50) under setting [1] was below 200 nM.

Take `COc1cc(C(=O)NC[C@](O)(c2cc3c(c(-c4c(Cl)ccc(Cl)c4F)n2)OC[C@]3(C)C(N)=O)C(F)(F)F)cc2cn(C3CC3)nc12` [Example 1262]: under setting [1], the concentration for a half-maximal effect (EC50) is below 200 nM.

For the molecule `COc1cc(C(=O)NC[C@](O)(c2cc3c(c(-c4c(F)ccc(Cl)c4Cl)n2)OC[C@]3(C)C(N)=O)C(F)(F)F)cc2cn(C3CC3)nc12` [Example 1263], the concentration giving a half-maximal response (EC50) under setting [1] was below 200 nM.

As for `COc1cc(C(=O)NC[C@](O)(c2cc3c(c(-c4cc(F)c(Cl)cc4Cl)n2)OC[C@]3(C)C(N)=O)C(F)(F)F)cc2cn(C3CC3)nc12` [Example 1265], the half-maximal effective concentration (EC50) under setting [1] was below 200 nM.

Turning to `COc1cc(C(=O)NCC(O)(c2cc3c(c(-c4cc(F)c(Cl)c(Cl)c4)n2)OC[C@]3(C)C(N)=O)C(F)(F)F)cc2cn(C3CC3)nc12` (stereo partly shown) [Example 1266], under setting [1], the half-maximal effective concentration (EC50) was below 200 nM.

Regarding `COc1cc(C(=O)NC[C@](O)(c2cc3c(c(-c4cc(Cl)c(Cl)cc4F)n2)OC[C@]3(C)C(N)=O)C(F)(F)F)cc2cn(C3CC3)nc12` [Example 1267], the concentration for a half-maximal effect (EC50) under setting [1] is below 200 nM.

As for `COc1cc(C(=O)NC[C@](O)(c2cc3c(c(C4CCC(F)(F)CC4)n2)OC[C@]3(C)C(N)=O)C(F)(F)F)cc2cn(C3CC3)nc12` [Example 1268], the EC50 under setting [1] was below 200 nM.

On to `COc1cc(C(=O)NC[C@](O)(c2cc3c(c(N4CCC(F)(F)CC4)n2)OC[C@]3(C)C(N)=O)C(F)(F)F)cc2cn(C3CC3)nc12` [Example 1270], for which the EC50 under setting [1] is below 200 nM.

As for `COc1cc(C(=O)NC[C@](O)(c2cc3c(c(N4CCCC(F)(F)C4)n2)OC[C@]3(C)C(N)=O)C(F)(F)F)cc2cn(C3CC3)nc12` [Example 1271], the EC50 under setting [1] is below 200 nM.

Take `[2H]C([2H])([2H])c1nc2c(OC)cc(C(=O)NC[C@](O)(c3cc4c(c(-c5cc(Br)c(F)cc5F)n3)OC[C@]4(C)C(N)=O)C3CC3)cc2cc1Cl` [Example 1272]: the concentration giving a half-maximal response (EC50) under setting [1] is below 200 nM.

With `COc1cc(C(=O)NC[C@](O)(c2cc3c(c(-c4cc(F)c(F)c(F)c4)n2)OC[C@]3(C)C(N)=O)C2CC2)cc2cn(C3CC3)nc12` [Example 1273], the EC50 under setting [1] is below 200 nM.

Consider `COc1cc(C(=O)NC[C@](O)(c2cc3c(c(-c4c(F)ccc(F)c4F)n2)OC[C@]3(C)C(N)=O)C2CC2)cc2cn(C3CC3)nc12` [Example 1274], for which, under setting [1], the EC50 is below 200 nM.

As for `COc1cc(C(=O)NC[C@](O)(c2cc3c(c(-c4cc(Cl)c(F)cc4Cl)n2)OC[C@]3(C)C(N)=O)C2CC2)cc2cn(C3CC3)nc12` [Example 1275], the EC50 under setting [1] was below 200 nM.

Turning to `COc1cc(C(=O)NC[C@](O)(c2cc3c(c(-c4cc(F)cc(F)c4)n2)OC[C@]3(C)C(N)=O)C2CC2)cc2cn(C3CC3)nc12` [Example 1276], the EC50 under setting [1] was below 200 nM.

For `COc1cc(C(=O)NC[C@](O)(c2cc3c(c(-c4ccc(F)cc4F)n2)OC[C@]3(C)C(N)=O)C2CC2)cc2cn(C3CC3)nc12` [Example 1277], under setting [1], the EC50 is below 200 nM.

With `COc1cc(C(=O)NC[C@](O)(c2cc3c(c(-c4cc(F)c(F)c(F)c4F)n2)OC[C@]3(C)C(N)=O)C2CC2)cc2cn(C3CC3)nc12` [Example 1278], under setting [1], the concentration giving a half-maximal response (EC50) was below 200 nM.

Regarding `COc1cc(C(=O)NC[C@](O)(c2cc3c(c(-c4ccc(Cl)cc4Cl)n2)OC[C@]3(C)C(N)=O)C2CC2)cc2cn(C3CC3)nc12` [Example 1279], the EC50 under setting [1] is below 200 nM.

With `COc1cc(C(=O)NC[C@](O)(c2cc3c(c(-c4cc(Cl)ccc4Cl)n2)OC[C@]3(C)C(N)=O)C2CC2)cc2cn(C3CC3)nc12` [Example 1280], the concentration giving a half-maximal response (EC50) under setting [1] is below 200 nM.

Consider `COc1cc(C(=O)NC[C@](O)(c2cc3c(c(-c4cc(Cl)cc(Cl)c4)n2)OC[C@]3(C)C(N)=O)C2CC2)cc2cn(C3CC3)nc12` [Example 1281], for which the EC50 under setting [1] is below 200 nM.

Take `COc1cc(C(=O)NC[C@](O)(c2cc3c(c(-c4cc(F)ccc4F)n2)OC[C@]3(C)C(N)=O)C2CC2)cc2cn(C3CC3)nc12` [Example 1282]: the EC50 under setting [1] is below 200 nM.

Regarding `COc1cc(C(=O)NC[C@](O)(c2cc3c(c(-c4cccc(Cl)c4F)n2)OC[C@]3(C)C(N)=O)C2CC2)cc2cn(C3CC3)nc12` [Example 1283], the EC50 under setting [1] is below 200 nM.

Take `COc1cc(C(=O)NC[C@](O)(c2cc3c(c(-c4c(Cl)ccc(F)c4F)n2)OC[C@]3(C)C(N)=O)C(F)(F)F)cc2cn(C3CC3)nc12` [Example 1284]: the half-maximal effective concentration (EC50) under setting [1] is below 200 nM.

Consider `COc1cc(C(=O)NC[C@](O)(c2cc3c(c(-c4cc(F)cc(Cl)c4Cl)n2)OC[C@]3(C)C(N)=O)C2CC2)cc2cn(C3CC3)nc12` [Example 1285], for which the EC50 under setting [1] was below 200 nM.

For the molecule `COc1cc(C(=O)NC[C@](O)(c2cc3c(c(-c4cccc(Cl)c4Cl)n2)OC[C@]3(C)C(N)=O)C2CC2)cc2cn(C3CC3)nc12` [Example 1286], under setting [1], the half-maximal effective concentration (EC50) was below 200 nM.
